Source: patent US10314806B2 (SICHUAN JIUZHANG BIOLOGICAL SCIENCE AND TECHNOLOGY CO., LTD., priority 2014, dated 2019)

What was measured:
H22 liver cancer = assay: Inhibition of KM mice-transplanted tumor of H22 liver cancer; type: in vivo
Experimental: (1) Animal Kunming mice, half male and half female, body weight 16˜27 g.
Cell Lines H22 cell lines were mice liver cancer cells, and were subjected to suspension growth in RPMI-1640 media containing 10% calf serum, 100 U·ml^−1 penicillin, 100 μg·ml^−1 streptomycin, and cultured in an incubator at 37° C. under 5% CO2, followed by changing the medium and subculturing every two or three days.
Cell Culture H22 cells in exponential phase of growth were collected, centrifugated at 1000 rpm for 5 min, and washed twice. Viable cells were counted by trypan blue staining. The cells were quickly inoculated in abdominal cavity of KM mice, and after 7˜10 days, ascites were drawn and subcutaneously inoculated at the left forelimb armpit of mice at 0.2 ml/animal (containing about 2×10^7 cells). When tumor grew to 1 cm×1 cm×1 cm, mice were used in experiment. Mice tumors were aseptically stripped, and washed with Hank's solution thrice, to remove blood, fat and necrotic tissues. Tumors were cut to broken pieces of 1 mm×1 mm×1 mm, and washed with Hank's solution twice, to which physiological saline was added at a ratio of (1 g:3 ml), and then ground in a glass homogenizer and filtered by 80-100 mesh sieve to make a suspension of single cell. Viable cells were counted by trypan blue staining.
On the second day after inoculation, a dosage of 0.2 ml·10 g^−1 was administrated by intravenous injection (iv), once a day. When the average tumor weight in negative group was more than 1.0 g (tumor volume being about 0.5 cm^3), the experiment was stopped, and mice were sacrificed by cervical vertebrae removal and weighed. Tumors were stripped to calculate inhibitory rate.

[1] = test system: chemical liver injury (rat alcoholic fatty liver model); assay: Protective effect on chemical liver injury (rat alcoholic fatty liver model); type: in vivo, rats; settings: for GSH / SOD / AST / MDA / ALT: 30 days; for GSH / SOD / MDA: liver homogenate; for AST / ALT: serum
Experimental: Experimental grouping and dose design: Female SD rats were randomly divided to groups, 10 rats for each group, […], 70 mg·kg^−1, 85 mg·kg^−1, 100 mg·kg^−1, 120 mg·kg^−1, 140 mg·kg^−1, 160 mg·kg^−1, 180 mg·kg^−1, […], together with a negative control group and 50% ethanol model control group. Liver injury model was induced by ethanol (analytical pure).
Determination of ALT, AST, TG in serum of rats; Determination of SOD, MDA, reduced glutathione (GSH) in liver homogenate.
Statistics of experimental data: Statistical analysis of experimental data was performed using software package of SPSS 19.0 for windows.

Structure (SMILES): O=C(/C=C/c1ccc(O)c(O)c1)O[C@@H]1C[C@](O)(C(=O)O)C[C@@H](O)[C@H]1O [Chlorogenic acid of the present invention]
- Inhibitory rate (H22 liver cancer; 1 mg·kg^−1 iv once a day): 8.8%
- Tumor weight (H22 liver cancer; 1 mg·kg^−1 iv once a day): 2.141 ± 0.333 g
- Inhibitory rate (H22 liver cancer; 5 mg·kg^−1 iv once a day): 24.7%
- Tumor weight (H22 liver cancer; 5 mg·kg^−1 iv once a day): 1.768 ± 0.667 g
- Inhibitory rate (H22 liver cancer; 10 mg·kg^−1 iv once a day): 46.3%
- Tumor weight (H22 liver cancer; 10 mg·kg^−1 iv once a day): 1.261 ± 0.388 g
- Inhibitory rate (H22 liver cancer; 20 mg·kg^−1 iv once a day): 54.8%
- Inhibitory rate (H22 liver cancer; 30 mg·kg^−1 iv once a day): 67.9%
- Tumor weight (H22 liver cancer; 30 mg·kg^−1 iv once a day): 0.754 ± 0.071 g
- Inhibitory rate (H22 liver cancer; 40 mg·kg^−1 iv once a day): 72.2%
- Tumor weight (H22 liver cancer; 40 mg·kg^−1 iv once a day): 0.653 ± 0.238 g
- Inhibitory rate (H22 liver cancer; 50 mg·kg^−1 iv once a day): 57.5%
- Tumor weight (H22 liver cancer; 50 mg·kg^−1 iv once a day): 0.998 ± 0.207 g
- Inhibitory rate (H22 liver cancer; 60 mg·kg^−1 iv once a day): 42.9%
- Tumor weight (H22 liver cancer; 60 mg·kg^−1 iv once a day): 1.341 ± 0.356 g
- Inhibitory rate (H22 liver cancer; 70 mg·kg^−1 iv once a day): 31.9%
- Inhibitory rate (H22 liver cancer; 80 mg·kg^−1 iv once a day): 24.1%
- Tumor weight (H22 liver cancer; 80 mg·kg^−1 iv once a day): 1.782 ± 0.122 g
- Inhibitory rate (H22 liver cancer; 90 mg·kg^−1 iv once a day): 16.7%
- Tumor weight (H22 liver cancer; 90 mg·kg^−1 iv once a day): 1.956 ± 0.581 g
- Inhibitory rate (H22 liver cancer; 100 mg·kg^−1 iv once a day): 11.5%
- Tumor weight (H22 liver cancer; 100 mg·kg^−1 iv once a day): 2.078 ± 0.326 g
- inhibitory action on KM mice-transplanted tumor of H22 liver cancer (H22 liver cancer; compared with the negative control group, obvious in the dosage groups of 10 mg/kg-60 mg/kg): obviously inhibitory action
- GSH ([1]; 10 mg·kg^−1 intragastric): 13.02 ± 1.23 mg/g
- SOD ([1]; 10 mg·kg^−1 intragastric): 28.12 ± 3.25 nmol/mg
- AST ([1]; 10 mg·kg^−1 intragastric): 189.54 ± 4.87 U/L
- GSH ([1]; 20 mg·kg^−1 intragastric): 18.98 ± 2.14 mg/g
- MDA ([1]; 20 mg·kg^−1 intragastric): 5.15 ± 0.21 U/mg
- SOD ([1]; 20 mg·kg^−1 intragastric): 36.45 ± 2.47 nmol/mg
- AST ([1]; 20 mg·kg^−1 intragastric): 178.54 ± 6.15 U/L
- GSH ([1]; 35 mg·kg^−1 intragastric): 19.21 ± 1.45 mg/g
- MDA ([1]; 35 mg·kg^−1 intragastric): 5.14 ± 0.47 U/mg
- SOD ([1]; 35 mg·kg^−1 intragastric): 37.27 ± 3.25 nmol/mg
- AST ([1]; 35 mg·kg^−1 intragastric): 168.54 ± 4.31 U/L
- GSH ([1]; 50 mg·kg^−1 intragastric): 22.14 ± 2.41 mg/g
- MDA ([1]; 50 mg·kg^−1 intragastric): 4.12 ± 0.65 U/mg
- SOD ([1]; 50 mg·kg^−1 intragastric): 38.24 ± 2.75 nmol/mg
- ALT ([1]; 50 mg·kg^−1 intragastric): 40.12 ± 3.15 U/L
- AST ([1]; 50 mg·kg^−1 intragastric): 139.21 ± 5.14 U/L
- GSH ([1]; 70 mg·kg^−1 intragastric): 22.87 ± 2.47 mg/g
- MDA ([1]; 70 mg·kg^−1 intragastric): 4.56 ± 0.78 U/mg
- SOD ([1]; 70 mg·kg^−1 intragastric): 38.75 ± 3.21 nmol/mg
- ALT ([1]; 70 mg·kg^−1 intragastric): 38.48 ± 2.47 U/L
- AST ([1]; 70 mg·kg^−1 intragastric): 127.54 ± 6.54 U/L
- GSH ([1]; 85 mg·kg^−1 intragastric): 23.01 ± 1.58 mg/g
- MDA ([1]; 85 mg·kg^−1 intragastric): 4.32 ± 0.46 U/mg
- SOD ([1]; 85 mg·kg^−1 intragastric): 40.14 ± 6.12 nmol/mg
- ALT ([1]; 85 mg·kg^−1 intragastric): 35.47 ± 2.46 U/L
- AST ([1]; 85 mg·kg^−1 intragastric): 119.25 ± 6.89 U/L
- GSH ([1]; 100 mg·kg^−1 intragastric): 23.48 ± 1.78 mg/g
- MDA ([1]; 100 mg·kg^−1 intragastric): 4.08 ± 0.85 U/mg
- SOD ([1]; 100 mg·kg^−1 intragastric): 41.56 ± 4.32 nmol/mg
- ALT ([1]; 100 mg·kg^−1 intragastric): 33.14 ± 1.89 U/L
- AST ([1]; 100 mg·kg^−1 intragastric): 126.89 ± 4.21 U/L
- GSH ([1]; 120 mg·kg^−1 intragastric): 23.98 ± 2.14 mg/g
- MDA ([1]; 120 mg·kg^−1 intragastric): 3.89 ± 0.42 U/mg
- SOD ([1]; 120 mg·kg^−1 intragastric): 42.87 ± 3.15 nmol/mg
- ALT ([1]; 120 mg·kg^−1 intragastric): 39.85 ± 2.41 U/L
- AST ([1]; 120 mg·kg^−1 intragastric): 138.84 ± 5.15 U/L
- GSH ([1]; 140 mg·kg^−1 intragastric): 24.35 ± 1.58 mg/g
- MDA ([1]; 140 mg·kg^−1 intragastric): 3.57 ± 0.64 U/mg
- SOD ([1]; 140 mg·kg^−1 intragastric): 44.78 ± 2.31 nmol/mg
- ALT ([1]; 140 mg·kg^−1 intragastric): 40.08 ± 2.78 U/L
- AST ([1]; 140 mg·kg^−1 intragastric): 140.54 ± 6.12 U/L
- GSH ([1]; 160 mg·kg^−1 intragastric): 20.01 ± 1.47 mg/g
- MDA ([1]; 160 mg·kg^−1 intragastric): 4.05 ± 0.25 U/mg
- SOD ([1]; 160 mg·kg^−1 intragastric): 38.56 ± 2.45 nmol/mg
- AST ([1]; 160 mg·kg^−1 intragastric): 157.98 ± 5.27 U/L
- GSH ([1]; 180 mg·kg^−1 intragastric): 19.87 ± 2.84 mg/g
- MDA ([1]; 180 mg·kg^−1 intragastric): 4.98 ± 0.87 U/mg
- SOD ([1]; 180 mg·kg^−1 intragastric): 37.25 ± 4.27 nmol/mg
- AST ([1]; 180 mg·kg^−1 intragastric): 168.12 ± 4.89 U/L
- GSH ([1]; 200 mg·kg^−1 intragastric): 19.01 ± 1.58 mg/g
- MDA ([1]; 200 mg·kg^−1 intragastric): 5.45 ± 0.24 U/mg
- SOD ([1]; 200 mg·kg^−1 intragastric): 36.25 ± 2.87 nmol/mg
- AST ([1]; 200 mg·kg^−1 intragastric): 177.56 ± 4.25 U/L
- GSH ([1]; 220 mg·kg^−1 intragastric): 17.24 ± 1.89 mg/g
- SOD ([1]; 220 mg·kg^−1 intragastric): 30.12 ± 2.14 nmol/mg
- AST ([1]; 220 mg·kg^−1 intragastric): 189.98 ± 5.67 U/L
- inhibitory action on chemical liver injury ([1]; dosage of 50 mg/kg-140 mg/kg had the most obvious effect): obviously inhibitory action
